Test results: ChEMBL document CHEMBL1649156, “Antianaerobic activity of sulopenem compared to six other agents” (2009)

What was measured:
Type in all cases: functional
Prevotella baroniae = experiment: Antimicrobial activity in Prevotella baroniae by CLSI agar dilution method in presence of Sulbactam; settings: Segatella baroniae
Hoylesella oralis = experiment: Antimicrobial activity in Prevotella oralis group by CLSI agar dilution method in presence of Sulbactam
Prevotella veroralis = experiment: Antimicrobial activity in Prevotella veroralis by CLSI agar dilution method in presence of Sulbactam
Prevotella bergensis = experiment: Antimicrobial activity in Prevotella bergensis by CLSI agar dilution method in presence of Sulbactam; settings: Hallella bergensis
Prevotella salivae = experiment: Antimicrobial activity in Prevotella salivae by CLSI agar dilution method in presence of Sulbactam; settings: Segatella salivae
Hoylesella loescheii = experiment: Antimicrobial activity in Prevotella loescheii by CLSI agar dilution method in presence of Sulbactam
Prevotella sp. = experiment: Antimicrobial activity in Prevotella sp.by CLSI agar dilution method in presence of Sulbactam
[1] = test system: Porphyromonas asaccharolytica; experiment: Antimicrobial activity in Porphyromonas asaccharolytica by CLSI agar dilution method in presence of Sulbactam
Fusobacterium nucleatum = experiment: Antimicrobial activity in Fusobacterium nucleatum by CLSI agar dilution method in presence of Sulbactam
[2] = test system: Fusobacterium necrophorum; experiment: Antimicrobial activity in Fusobacterium necrophorum by CLSI agar dilution method in presence of Sulbactam
Fusobacterium mortiferum = experiment: Antimicrobial activity in Fusobacterium mortiferum by CLSI agar dilution method in presence of Sulbactam
Fusobacterium varium = experiment: Antimicrobial activity in Fusobacterium varium by CLSI agar dilution method in presence of Sulbactam
Finegoldia magna = experiment: Antimicrobial activity in Finegoldia magna by CLSI agar dilution method in presence of Sulbactam
Parvimonas micra = experiment: Antimicrobial activity in Micromonas micros by CLSI agar dilution method in presence of Sulbactam
[3] = test system: Peptostreptococcus anaerobius; experiment: Antimicrobial activity in Peptostreptococcus anaerobius by CLSI agar dilution method in presence of Sulbactam
[4] = test system: Peptoniphilus asaccharolyticus; experiment: Antimicrobial activity in Peptoniphilus asaccharolyticus by CLSI agar dilution method in presence of Sulbactam
Anaerococcus tetradius = experiment: Antimicrobial activity in Anaerococcus tetradius by CLSI agar dilution method in presence of Sulbactam
Anaerococcus prevotii = experiment: Antimicrobial activity in Anaerococcus prevotii by CLSI agar dilution method in presence of Sulbactam
Lactobacillus = experiment: Antimicrobial activity in Lactobacillus by CLSI agar dilution method in presence of Sulbactam
Bifidobacterium = experiment: Antimicrobial activity in Bifidobacterium by CLSI agar dilution method in presence of Sulbactam
Cutibacterium acnes = experiment: Antimicrobial activity in Propionibacterium acnes by CLSI agar dilution method in presence of Sulbactam
Actinomyces = experiment: Antimicrobial activity in Actinomyces by CLSI agar dilution method in presence of Sulbactam
Eggerthella lenta = experiment: Antimicrobial activity in Eggerthella lenta by CLSI agar dilution method in presence of Sulbactam
Clostridium perfringens = experiment: Antimicrobial activity in Clostridium perfringens by CLSI agar dilution method in presence of Sulbactam
Clostridioides difficile = experiment: Antimicrobial activity in Clostridium difficile by CLSI agar dilution method in presence of Sulbactam
Clostridium sp. = experiment: Antimicrobial activity in Clostridium sp. by CLSI agar dilution method in presence of Sulbactam
Clostridium tertium = experiment: Antimicrobial activity in Clostridium tertium by CLSI agar dilution method in presence of Sulbactam
Thomasclavelia ramosa = experiment: Antimicrobial activity in Clostridium ramosum by CLSI agar dilution method in presence of Sulbactam
Clostridium cadaveris = experiment: Antimicrobial activity in Clostridium cadaveris by CLSI agar dilution method in presence of Sulbactam
[5] = test system: Paraclostridium bifermentans; experiment: Antimicrobial activity in Clostridium bifermentans by CLSI agar dilution method in presence of Sulbactam
[Clostridium] innocuum = Antimicrobial activity in Clostridium innocuum by CLSI agar dilution method in presence of Sulbactam
[6] = test system: Paeniclostridium sordellii; experiment: Antimicrobial activity in Clostridium sordellii by CLSI agar dilution method in presence of Sulbactam; settings: Paraclostridium sordellii
Clostridium butyricum = experiment: Antimicrobial activity in Clostridium butyricum by CLSI agar dilution method in presence of Sulbactam
Bacteroides fragilis = experiment: Antimicrobial activity in Bacteroides fragilis by CLSI agar dilution method in presence of Sulbactam
[7] = test system: Bacteroides thetaiotaomicron; experiment: Antimicrobial activity in Bacteroides thetaiotaomicron by CLSI agar dilution method in presence of Sulbactam
Bacteroides ovatus = experiment: Antimicrobial activity in Bacteroides ovatus by CLSI agar dilution method in presence of Sulbactam
Phocaeicola vulgatus = experiment: Antimicrobial activity in Bacteroides vulgatus by CLSI agar dilution method in presence of Sulbactam
[8] = test system: Parabacteroides distasonis; experiment: Antimicrobial activity in Bacteroides distasonis by CLSI agar dilution method in presence of Sulbactam
Bacteroides uniformis = experiment: Antimicrobial activity in Bacteroides uniformis by CLSI agar dilution method in presence of Sulbactam
Bacteroides stercoris = experiment: Antimicrobial activity in Bacteroides stercoris by CLSI agar dilution method in presence of Sulbactam
Prevotella bivia = experiment: Antimicrobial activity in Prevotella bivia by CLSI agar dilution method in presence of Sulbactam
Prevotella buccae = experiment: Antimicrobial activity in Prevotella buccae by CLSI agar dilution method in presence of Sulbactam; settings: Segatella buccae
[9] = test system: Prevotella melaninogenica; experiment: Antimicrobial activity in Prevotella melaninogenica by CLSI agar dilution method in presence of Sulbactam
Prevotella denticola = experiment: Antimicrobial activity in Prevotella denticola by CLSI agar dilution method in presence of Sulbactam
Prevotella intermedia = experiment: Antimicrobial activity in Prevotella intermedia by CLSI agar dilution method in presence of Sulbactam
Prevotella nigrescens = experiment: Antimicrobial activity in Prevotella nigrescens by CLSI agar dilution method in presence of Sulbactam
Prevotella corporis = experiment: Antimicrobial activity in Prevotella corporis by CLSI agar dilution method in presence of Sulbactam
Prevotella disiens = experiment: Antimicrobial activity in Prevotella disiens by CLSI agar dilution method in presence of Sulbactam
[10] = test system: Enterocloster clostridioformis; experiment: Antimicrobial activity in Clostridium clostridioforme by CLSI agar dilution method in presence of Sulbactam
Tissierella praeacuta = experiment: Antimicrobial activity in Clostridium hastiforme by CLSI agar dilution method in presence of Sulbactam
Porphyromonas gingivalis = experiment: Antimicrobial activity in Porphyromonas gingivalis by CLSI agar dilution method in presence of Sulbactam

CC1(C)S[C@@H]2[C@H](NC(=O)[C@H](N)c3ccccc3)C(=O)N2[C@H]1C(=O)O [AMPICILLIN] showed an MIC (Prevotella baroniae) of at most 0.125 µg/mL, an MIC (Hoylesella oralis) of at most 0.125 µg/mL and an MIC (Prevotella veroralis) of at most 0.125 µg/mL. The MIC (Prevotella bergensis) was 1 µg/mL, the MIC (Prevotella salivae) was at most 0.125 µg/mL and the MIC (Hoylesella loescheii) was 0.5 µg/mL. The MIC (Prevotella sp.) was at most 0.125 µg/mL, the MIC [1] was at most 0.125 µg/mL and the MIC (Fusobacterium nucleatum) was at most 0.125 µg/mL. The MIC50 (Fusobacterium nucleatum) was at most 0.125 µg/mL, the MIC90 (Fusobacterium nucleatum) was at most 0.125 µg/mL and the MIC [2] was at most 0.125 µg/mL. The MIC50 [2] was at most 0.125 µg/mL, the MIC50 (Fusobacterium mortiferum) was 1 µg/mL and the MIC90 (Fusobacterium mortiferum) was over 32 µg/mL. For the same molecule, the MIC50 (Fusobacterium varium) was 2 µg/mL, the MIC90 (Fusobacterium varium) was 2 µg/mL and the MIC50 (Finegoldia magna) was 0.25 µg/mL. It also gave an MIC90 (Finegoldia magna) of 0.5 µg/mL, an MIC (Parvimonas micra) of at most 0.125 µg/mL and an MIC50 (Parvimonas micra) of at most 0.125 µg/mL. For the same molecule, the MIC90 (Parvimonas micra) was 1 µg/mL, the MIC50 [3] was 0.25 µg/mL and the MIC90 [3] was 16 µg/mL. It also gave an MIC [4] of at most 0.125 µg/mL, an MIC50 [4] of at most 0.125 µg/mL and an MIC (Anaerococcus tetradius) of at most 0.125 µg/mL. The MIC50 (Anaerococcus tetradius) was at most 0.125 µg/mL, the MIC90 (Anaerococcus tetradius) was at most 0.125 µg/mL and the MIC (Anaerococcus prevotii) was at most 0.125 µg/mL. For the same molecule, the MIC50 (Lactobacillus) was 1 µg/mL, the MIC90 (Lactobacillus) was 1 µg/mL and the MIC (Bifidobacterium) was at most 0.125 µg/mL. For the same molecule, the MIC50 (Bifidobacterium) was at most 0.125 µg/mL, the MIC90 (Bifidobacterium) was 0.25 µg/mL and the MIC (Cutibacterium acnes) was at most 0.125 µg/mL. The MIC50 (Cutibacterium acnes) was at most 0.125 µg/mL, the MIC90 (Cutibacterium acnes) was 0.25 µg/mL and the MIC (Actinomyces) was at most 0.125 µg/mL. It also gave an MIC50 (Actinomyces) of 0.25 µg/mL, an MIC50 (Eggerthella lenta) of 1 µg/mL and an MIC90 (Eggerthella lenta) of 2 µg/mL. The MIC (Clostridium perfringens) was at most 0.125 µg/mL, the MIC50 (Clostridium perfringens) was at most 0.125 µg/mL and the MIC90 (Clostridium perfringens) was 0.25 µg/mL. The MIC50 (Clostridioides difficile) was 2 µg/mL, the MIC90 (Clostridioides difficile) was 2 µg/mL and the MIC50 (Clostridium sp.) was 0.25 µg/mL. The MIC90 (Clostridium sp.) was 0.5 µg/mL, the MIC (Clostridium tertium) was 0.25 µg/mL and the MIC50 (Clostridium tertium) was 0.25 µg/mL. It also gave an MIC (Thomasclavelia ramosa) of at most 0.125 µg/mL, an MIC (Clostridium cadaveris) of at most 0.125 µg/mL and an MIC [5] of 0.5 µg/mL. For the same molecule, the MIC ([Clostridium] innocuum) was at most 0.125 µg/mL, the MIC [6] was at most 0.125 µg/mL and the MIC (Clostridium butyricum) was 1 µg/mL. For the same molecule, the MIC50 (Bacteroides fragilis) was 1 µg/mL, the MIC90 (Bacteroides fragilis) was 8 µg/mL and the MIC50 [7] was 2 µg/mL. The MIC90 [7] was 8 µg/mL, the MIC (Bacteroides ovatus) was 1 µg/mL and the MIC50 (Bacteroides ovatus) was 1 µg/mL. For the same molecule, the MIC90 (Bacteroides ovatus) was 4 µg/mL, the MIC50 (Phocaeicola vulgatus) was 2 µg/mL and the MIC90 (Phocaeicola vulgatus) was 16 µg/mL. It also gave an MIC50 [8] of 8 µg/mL, an MIC90 [8] of 32 µg/mL and an MIC (Bacteroides uniformis) of 1 µg/mL. For the same molecule, the MIC50 (Bacteroides uniformis) was 1 µg/mL, the MIC (Bacteroides stercoris) was 1 µg/mL and the MIC50 (Bacteroides stercoris) was 2 µg/mL. The MIC50 (Prevotella bivia) was 1 µg/mL, the MIC90 (Prevotella bivia) was 4 µg/mL and the MIC50 (Prevotella buccae) was 0.25 µg/mL. For the same molecule, the MIC90 (Prevotella buccae) was 2 µg/mL, the MIC50 [9] was 0.5 µg/mL and the MIC90 [9] was 2 µg/mL. It also gave an MIC50 (Prevotella denticola) of 0.5 µg/mL, an MIC90 (Prevotella denticola) of 2 µg/mL and an MIC50 (Prevotella intermedia) of 0.25 µg/mL. It also gave an MIC90 (Prevotella intermedia) of 0.5 µg/mL, an MIC50 (Prevotella nigrescens) of 0.25 µg/mL and an MIC90 (Prevotella nigrescens) of 0.5 µg/mL. The MIC (Prevotella corporis) was at most 0.125 µg/mL, the MIC50 (Prevotella corporis) was at most 0.125 µg/mL and the MIC (Prevotella disiens) was at most 0.125 µg/mL. It also gave an MIC50 (Prevotella disiens) of 0.25 µg/mL, an MIC [10] of 1 µg/mL and an MIC (Tissierella praeacuta) of 1 µg/mL. For the same molecule, the MIC (Porphyromonas gingivalis) was at most 0.125 µg/mL.
